Entries after “also recorded” stand apart in the source; their conditions may differ.

In one test the test system is AMPK. The test is described as follows: pACC HTRF assay (Cisbio) in U-2 OS Flp-In T-REx cells. The class given is cell-based. The note with it: varying concentrations, 30 mins at 37 C, FIG. 1. The protocol:
Compound 1 increased the phosphorylation of the AMPK substrate, acetyl-CoA carboxylase (ACC), in U-2 OS Flp-In T-REx mammalian cells. U-2 OS cells were treated with varying concentrations of Compound 1 for 30 mins at 37 C. Phosphorylation of ACC was assessed using the HTRF Cisbio (pACC kit). […] U-2 OS Flp-In T-REx cells were seeded at 50 K in a 96-well plate and left overnight at 37 C in DMEM GlutaMAX (Thermo Fisher Scientific) supplemented with 10% (vol/vol) FBS and 100 U/ml penicillin G, and 100 μg/ml streptomycin. Cells were treated for 30 mins with varying concentrations of Compound 1 in media lacking FBS and then cells were lysed in 50 μl of Cisbio lysis buffer #1 supplemented with blocking solution as per the manufacturer's protocol (Cisbio). Cells were lysed for 30 mins at room temperature before 16 μl of lysate was incubated with 4 μl of the HTRF antibodies (1:40 dilution of the acceptor and donor (p)ACC antibodies, as per the manufacturers protocol). Lysates were incubated overnight with the antibodies before the 665 nm/620 nm ratio was determined using a MolecularDevices i3 plate reader (with a HTRF cartridge add-on). […] Phosphorylation of ACC is extensively used as a cellular read-out of AMPK activity.

Test [1] relates to AMPK containing β1 S108A (ADaM site) mutant subunit. Kind of test: pACC HTRF assay in AMPKβ1/β2 double knockout U-2 OS cells stably expressing β1 S108A mutant. In kind it is cell-based, human. The note with it: varying concentrations, 30 mins at 37 C, FIG. 2. The protocol: (§1) The β1 WT or β1 S108A mutant were stably expressed in […] double knockout cells and were treated with varying concentrations of Compound 1 for 30 mins at 37 C. Phosphorylation of ACC was assessed using the HTRF Cisbio (pACC kit).
(§2) AMPKβ1/β2 double knockout U-2 OS Flp-In™ T-Rex™ cell lines were generated by Horizon Discovery (Cambridge, UK). Cells were genotyped and analysed by Western blotting to confirm that there was a complete knockout of AMPKβ1/β2. We took these AMPKβ1/β2 double knockout cells, and re-introduced the expression of human β1 wild-type (WT) or a (31 Serine 108 to alanine mutation (S108A). This was achieved using the Flp-In™ system (Invitrogen) present in this cell line and stable cells expressing β1 WT or a β1 S108A mutant were generated according to the manufacturers' protocols. Re-expression of the β1 subunit was confirmed by Western blot analysis.
(§3) Cells stably expressing β1 WT or a β1 S108A mutant were treated with varying concentrations of Compound 1. Cells lysates were subjected to the pACC HTRF (Cisbio) assay to determine the level of phosphorylation of the AMPK substrate, ACC, in cell lysates, as in example 1.

Test [2] has as its system AMPK containing β1 wild-type (WT) subunit. The test is described as follows: pACC HTRF assay in AMPKβ1/β2 double knockout U-2 OS cells stably expressing β1 WT. In kind it is cell-based, human. The note with it: varying concentrations, 30 mins at 37 C, FIG. 2. On the procedure: as §1, §2, §3

On to `C=C(C)[C@@H]1CCC(C)=C[C@H]1c1c(O)cc(CCCCC)cc1O` [Compound 1, 2-[(1R,6R)-3-Methyl-6-(1-methylethenyl)-2-cyclohexen-1-yl]-5-pentyl-1,3-benzenediol], for which the “phosphorylation of the AMPK substrate ACC (HTRF ratio 665/620 nm)” value in the test on AMPK was “increased the phosphorylation of the AMPK substrate, ACC, in a dose-dependent manner”. In addition, in test [1], the “phosphorylation of ACC (pACC) / AMPK activation, fold increase in activation” value was “did not activate AMPK; also recorded: not able to increase the activity of AMPK”. Further, the “phosphorylation of ACC (pACC), fold increase in activation” value in test [2] was “able to dose-dependently increase pACC”.

The values above are taken from US20240010589A1, “SUBSTITUTED RESORCINOL COMPOUNDS AS AMPK ACTIVATORS, COMPOSITIONS, METHODS AND USES THEREOF” (SOCIETE DES PRODUITS NESTLE S.A., priority 2020, published 2024).
